Test results taken from US6368788B1 (priority 1987, dated 2002).
Values joined by “and” are separate entries in the source; they are usually repeats but may differ in a detail not shown here. Identical values can stand only once. “Also recorded” adds a separate entry of the source. Like-named read-outs stand apart in the source and are kept apart here. Marks after values point to notes of the source that are not given here.

Columns and labels:
[1] = Complications of pregnancy: toxemia (Protocol B); parameters: species or system human; settings: in vivo
Description: L-Glu-L-Trp was administered im at 100 μg daily, or 1 μg/kg intranasally, for 5-10 days.

Pseudomonas aeruginosa = assay: Survival after acute peritonitis with LD100 dose of Pseudomonas aeruginosa; type: in vivo, mice
Plasmodium falciparum = assay: Relapsing tropical malaria; type: in vivo, human; parameters: IgG / IgA / IgM: unit not given here
HIV = assay: HIV-infected individuals: comparative studies with TPI; parameters: species or system human; settings: in vivo
Description: In separate studies, a total of 21 HIV-infected individuals were studied, including full-blown syndrome, prodromal, and pre-AIDS afflicted individuals who were treated with Thympentin. Thympentin and TPI are thymic gland peptide extracts previously disclosed in the scientific literature.

Staphylococci = assay: Chronic staphylococcal pyoderma, overview (Protocol A); parameters: species or system human; settings: in vivo
Description: The total clinical trial population eventually under examination consisted of 159 patients with pyoderma, including furunculitis, cellulitis, and folliculitis. Trial Protocol A1, below, details some of the results obtained in this trial. Medications were administered either im or intranasally for 5 consecutive days. Peripheral blood immune indices were decreased prior to treatment and following treatment with L-Glu-L-Trp were restored to within the normal range. […] Clinical improvement was correlated with return of the immune parameters to within the normal range of values. In certain patients, L-Glu-L-Trp was also topically applied as a sterile saline solution of medication for a period of 5 to 10 days at a dosage of 1 μg/kg body weight.

Bone fractures = assay: Bone fractures; parameters: species or system human; settings: in vivo
Description: L-Glu-L-Trp was applied to 44 patients with bone fractures of various origin. The control group comprised 28 patients. L-Glu-L-Trp was administered intramuscularly or intranasally in a single dose of 100 μg daily for 10 days.

[2] = system: peripheral blood leukocytes
Description: Twenty-eight patients (15) having the same disease profile and under conventional treatment formed a control group.
The patients presented with the following diagnosed odontogenic infections: 18 with limited purulent infection(s), 7 with focal infection(s), 3 with diffuse infection(s). In addition, 3 patients presented with destructive osteomyelitis and 15 with plegmons mandible.
All 15 children in the conventional treatment group were evaluated before therapy. Post-treatment measurements were performed with peripheral blood samples that were collected from all the conventional and L-Glu-L-Trp treated children. Fifteen healthy normal children were also evaluated to determine the normal mean values in the respective assays (Normal Healthy Control).

[3] = Occupational radiation exposure to 100-200 R; parameters: species or system human; settings: in vivo
Excerpt: A total of 263 patients and 18 control patients sustained exposure to 100-200 Roentgens of occupational radiation over a period of several weeks.

[4] = Chronic primary gastritis and gastro-duodenitis; type: in vivo, human
Excerpt: Twenty two patients (all men aged 18-30 years) suffering from chronic primary gastritis and gastro-duodenitis were entered into the trial. Diagnosis was based on physical examination, and clinical and laboratory investigations including roentgenoscopy and endoscopic examination of the stomach and duodenum. Patient entry criteria was further conditioned on the results of laboratory tests for i) pre-treatment immune indices (i.e., numbers of lymphocytes, T-, and B-lymphocytes, etc.; TABLE 46) and ii) the in vitro sheep red blood cell rosette forming response of T-lymphocytes to L-Glu-L-Trp, (i.e., whether in vitro incubation of patient peripheral blood lymphocytes with L-Glu-L-Trp increased the percentage of E-RFC). […] These twelve patients were entered into the trial.
For determining normal values, the control group consisted of 28 normal healthy volunteers aged 17-23.
Patients received L-Glu-L-Trp im daily at a dosage of 100 μg for 5 days in combination with their conventional ongoing treatment.

Mycobacterium leprae = type: in vivo, human
[5] = malaria, after L-Glu-L-Trp Therapy (n = 33)
[6] = children, periapical granulomas, L-Glu-L-Trp Combination, After Therapy
[7] = After L-Glu-L-Trp Combination Therapy

In the case of L-Glu-L-Trp, the Clinical outcome [1] is reported as “normalized blood pressure”, the “Percentage Survivors” value (Pseudomonas aeruginosa; 24 hours after injection, Glu-Trp dose 10 μg/kg (alone or + Gentamycin 1 MED)) is reported as 55.6* % and the “Percentage Survivors” value (Pseudomonas aeruginosa; 24 hours after injection, Glu-Trp dose 100 μg/kg (alone or + Gentamycin 1 MED)) is reported as 66.7*† %. For the same substance, the “Percentage Survivors” value (Pseudomonas aeruginosa; 24 hours after injection, Glu-Trp dose 1000 μg/kg (alone or + Gentamycin 1 MED)) was 77.8*† %, the “Percentage Survivors” value (Pseudomonas aeruginosa; 48 hours after injection, Glu-Trp dose 10 μg/kg (alone or + Gentamycin 1 MED)) was 5.6% and the “Percentage Survivors” value (Pseudomonas aeruginosa; 48 hours after injection, Glu-Trp dose 100 μg/kg (alone or + Gentamycin 1 MED)) was 38.9* %. The “Percentage Survivors” value (Pseudomonas aeruginosa; 48 hours after injection, Glu-Trp dose 1000 μg/kg (alone or + Gentamycin 1 MED)) was 44.4* %, the “Percentage Survivors” value (Pseudomonas aeruginosa; 96 hours after injection, Glu-Trp dose 10 μg/kg (alone or + Gentamycin 1 MED)) was 5.6% and the “Percentage Survivors” value (Pseudomonas aeruginosa; 96 hours after injection, Glu-Trp dose 100 μg/kg (alone or + Gentamycin 1 MED)) was 38.9%. For the same substance, the “Percentage Survivors” value (Pseudomonas aeruginosa; 96 hours after injection, Glu-Trp dose 1000 μg/kg (alone or + Gentamycin 1 MED)) was 44.4* %, the Survival (Pseudomonas aeruginosa; alone or with Gentamycin) was “significantly increased the percentage of mice surviving a lethal challenge of Pseudomonas” and the Clinical outcome (Plasmodium falciparum; in vivo) was “decreased incidence of disease relapses”. The “FDP and ATIII levels” value (Plasmodium falciparum; in vivo) was “the levels of FDP decreased and ATIII increased”, the “PBL and T- and B-lymphocyte counts” value (Plasmodium falciparum; in vivo) was “increased PBL and T- and B-lymphocyte counts to normal or supra-normal values” and the “ATIII (%)” value (Plasmodium falciparum; [5]) was 98 ± 1.38%. The B-Lymphocytes (Plasmodium falciparum; [5]) was 0.53 ± 0.02 ×10^9/L, the “B-Lymphocytes % Normal Value” (Plasmodium falciparum; [5]) was “(115%)” and the “Clotting time (whole blood)” value (Plasmodium falciparum; [5]) was 141 ± 2.4^. The FDP (Plasmodium falciparum; [5]) was 23 ± 1.8 µg/mL, the “Fibrinogen Concentration” value (Plasmodium falciparum; [5]) was 3.4 ± 0.1 g/L and the “Hagemann factor dependent fibrinolysis” value (Plasmodium falciparum; [5]) was 25 ± 2.58. For the same substance, the IgA (Plasmodium falciparum; [5]) was 138 ± 6.0, the “IgA % Normal Value” (Plasmodium falciparum; [5]) was “(140%)” and the IgG (Plasmodium falciparum; [5]) was 187 ± 1.9. For the same substance, the “IgG % Normal Value” (Plasmodium falciparum; [5]) was “(140%)”, the IgM (Plasmodium falciparum; [5]) was 193 ± 9.0 and the “IgM % Normal Value” (Plasmodium falciparum; [5]) was “(152%)”. For the same substance, the Kaolin clotting time (Plasmodium falciparum; [5]) was 58 ± 0.3, the Leukocytes (Plasmodium falciparum; [5]) was 9.0 ± 0.14 ×10^9/L and the “Leukocytes % Normal Value” (Plasmodium falciparum; [5]) was “(155%)”. The Lymphocytes (Plasmodium falciparum; [5]) was 2.57 ± 0.09 ×10^9/L, the “Lymphocytes % Normal Value” (Plasmodium falciparum; [5]) was “(148%)” and the PTT (Plasmodium falciparum; [5]) was 23 ± 0.2. The T-Lymphocytes (Plasmodium falciparum; [5]) was 0.94 ± 0.06 ×10^9/L, the “T-Lymphocytes % Normal Value” (Plasmodium falciparum; [5]) was “(106%)” and the Thrombotest (Plasmodium falciparum; [5]) was 33 ± 0.5. The “Total Fibrinogen” value (Plasmodium falciparum; [5]) was 200 ± 2.7^, the Comparative effectiveness (HIV) was “more effective than TPI in restoring normal immunologic indices, T-cell functional activity, and T4/T8 ratios” and the Clinical outcome (Staphylococci) was “disappearance of skin manifestations and resolution of pyoderma”. The Clinical outcome (Bone fractures) was “prevented the development of infectious complications, reduced pain syndrome and treatment duration”, the “B-Lymphocytes % of Normal Value” [2, 6] was “(108%)” and the “B-Lymphocytes: No.” value [2, 6] was 0.67 ± 0.05 10^9/L. For the same substance, the IgA [2, 6] was 1.09 ± 0.04 g/L, the “IgA % Normal Value” [2, 6] was “(104%)” and the IgG [2, 6] was 10.78 ± 0.83 g/L. For the same substance, the “IgG % Normal Value” [2, 6] was “(117%)”, the IgM [2, 6] was 0.93 ± 0.07 g/L and the “IgM % Normal Value” [2, 6] was “(95%)”. For the same substance, the “LMIR Response: % w/PHA” value [2, 6] was 14.65 ± 3.11 %, the “Leukocytes % Normal Value” [2, 6] was “(97%)” and the “Leukocytes: No.” value [2, 6] was 6.60 ± 0.39* 10^9/L. For the same substance, the “Lymphocytes % Normal Value” [2, 6] was “(36%)”, the “Lymphocytes: No.” value [2, 6] was 2.37 ± 0.21 10^9/L and the “T-Lymphocytes % of Normal Value” [2, 6] was “(98%)”. The “T-Lymphocytes: No.” value [2, 6] was 1.24 ± 0.11* 10^9/L, the “T-lymphocyte counts, % of normal levels” value ([2]; following combination therapy) was 98% and the Outcome [3] was “restoration of normal, or near normal, peripheral blood immune indices in all patients”. For the same substance, the B-Lymphocytes [4, 7] was 0.14 ± 0.02 ×10^9/L, the “B-Lymphocytes % Normal Value” [4, 7] was “(97%)” and the “B-Lymphocytes (%)” value [4, 7] was 7.2 ± 1.5%. For the same substance, the “Null Lymphocytes” value [4, 7] was 0.9 ± 0.05 ×10^9/L, the “Null Lymphocytes % Normal Value” [4, 7] was “(145%)” and the “Null Lymphocytes (%)” value [4, 7] was 37.3 ± 2.0 %. For the same substance, the T-Lymphocytes [4, 7] was 1.04 ± 0.04 ×10^9/L, the “T-Lymphocytes % Normal Value” [4, 7] was “(96%)” and the “T-Lymphocytes (%)” value [4, 7] was 55.4 ± 2.1 %. For the same substance, the Clinical outcome ([4]; in vivo) was “more rapid recovery”, the “Mean % responsive PBL (blast cells), Con-A” value (Mycobacterium leprae; 5-7 days) was 22.5 ± 4.0% and the “Mean % responsive PBL (blast cells), PHA” value (Mycobacterium leprae; 5-7 days) was 28.7 ± 3.8%. The “Additional decrease in area of ulceration, primary NTU” value (Mycobacterium leprae; in vivo) was 23.2% and 22%, the “Blast cells responsive to synthetic leprosy antigen” value (Mycobacterium leprae; in vivo) was 2.86±0.9% and the Clinical outcome (Mycobacterium leprae; in vivo) was “resolution of dermal leprotic lesions”. For the same substance, the “Decrease in area of ulceration, primary NTU” value (Mycobacterium leprae; in vivo) was 40%, the “Decrease in area of ulceration, recurrent ulcers” value (Mycobacterium leprae; in vivo) was 22.6% and the “EI change versus Before (↓)” value (Mycobacterium leprae; in vivo) was “(↓33%)”. The “Healing time, primary NTU” value (Mycobacterium leprae; in vivo) was 3-6 weeks, the “Healing time, secondary recurrent NTU” value (Mycobacterium leprae; in vivo) was 4-6 weeks and the “Increase of blast responsiveness of patient lymphocytes to Con-A” value (Mycobacterium leprae; in vivo) was 1.6 fold. The “Increase of blast responsiveness of patient lymphocytes to PHA” value (Mycobacterium leprae; in vivo) was 1.8 fold, the “Increase of lymphocytes responsive to synthetic leprosy antigen” value (Mycobacterium leprae; in vivo) was “about 1.6 fold” and the “Lepromin skin test conversion” value (Mycobacterium leprae; in vivo) was “four subjects with negative skin tests for lepromin at the beginning of therapy turned positive”. For the same substance, the “Mean % responsive PBL (blast cells), Con-A” value (Mycobacterium leprae; in vivo) was 36.9 ± 1.28%, the “Mean % responsive PBL (blast cells), PHA” value (Mycobacterium leprae; in vivo) was 22.3 ± 1.43% and the “OKT 4 (%)” value (Mycobacterium leprae; in vivo) was 40.67 ± 1.44% and 43.25 ± 1.91%. The “OKT 4/OKT 8” value (Mycobacterium leprae; in vivo) was 1.61 ± 0.08 and 1.68 ± 0.32, the “OKT 8 (%)” value (Mycobacterium leprae; in vivo) was 25.56 ± 1.15% and 27.25 ± 3.42% and the “OKT 11 (%)” value (Mycobacterium leprae; in vivo) was 72.22 ± 1.52% and 76.25 ± 0.87%. The “Rate of healing, primary NTU” value (Mycobacterium leprae; in vivo) was 6.34 mm^2/day, the “Rate of healing, recurrent NTU” value (Mycobacterium leprae; in vivo) was 5.91 mm^2/day and the “Romanovsky Staining” value (Mycobacterium leprae; in vivo) was “regenerative: lst or 2nd phase; also recorded: regenerative: 2nd or 3rd. phase,; also recorded: regenerative: 3rd. phase/healing;; also recorded: degenerative cells &”.
